Tested on: C57BL/6j bone marrow derived dendritic cells
Assay: Seahorse extracellular acidification rate (ECAR) assay in glucose-free media
Type: cell-based
Details: PFK15 200 nM, 4 hours
Method: F16BP particles rescues glycolysis even in the presence of glycolytic inhibitor PFK15. In order to test if F16BP can indeed functionally accelerate glycolysis in the presence of low glucose environment, extracellular acidification rate (ECAR), which measures changes in extracellular pH due to lactic acid production (a byproduct of glycolysis) was determined using Seahorse assays. In this case, although, C57BL/6j bone marrow derived dendritic cells (DCs, another type of phagocytic cell) were utilized, it is believed that CAR macrophages will behave similarly. Specifically, DCs were treated with PFK15 (200 nM), or F16BP particles (0.1 mg/mL) or PFK15+F16BP particles. After 4 hours of treatment with formulations, changes in pH using ECAR were recorded in glucose-free media. In a step-wise manner cells were added with oligomycin to measure ATP production and proton leak, Carbonyl cyanide-4 (trifluoromethoxy) phenylhydrazone (FCCP—disrupts mitochondrial membrane potential) to measure maximal respiration, rotenone and antimycinA (shuts down mitochondrial respiration) to measure spare capacity.

**Q.** How did the “ECAR values relative to no treatment control” value turn out when `O=C(/C=C/c1ccc2ccccc2n1)c1ccncc1` [PFK15] was run?
**A.** even lower than no treatment control

— patent US20230265205A1, “METABOLISM-BASED CHIMERIC ANTIGEN RECEPTORS AND METHODS OF TREATMENT” (Arizona Board of Regents on behalf of Arizona State …, priority 2020, published 2023)
